The source made the active and inactive calls.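 How the source made its calls: active means EC50 at most tenfold above the top concentration tested; inconclusive means flat fit with activity between 30% and 70%, or invalid fit; inactive means EC50 beyond tenfold above the top concentration.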
System: S. cerevisiae SKY197-pL101 polyadenylation reporter, beta-gal luminescence, 9 h
Experiment: mRNA 3' processing disruption, beta-gal signal increase – luminescence, S. cerevisiae SKY197-pL101, dose response (AID 2525)

**Q.** With `Nc1ncnc2c1ncn2C1OC(CO)CC1O` (stereo unspecified) as the compound, how does the EC50 read?
**A.** > 50 µM (inactive)
